The target of test [1] is T1, GTPase KRas (Homo sapiens, UniProt P01116). The test can be described thus: Inhibition of KRAS in human ASPC1 cells assessed as downregulation of ERK phosphorylation incubated for 3 hrs by immunoblotting analysis. The class given is cell-based. The following applies: tested as the 2H-labelled form.
Test [2] has as its target T1, GTPase KRas. The test can be described thus: Inhibition of KRAS in human ASPC1 cells assessed as downregulation of AKT phosphorylation incubated for 3 hrs by immunoblotting analysis. The class given is cell-based. The following applies: tested as the 2H-labelled form. A general note: In western blotting, separated proteins are transferred to a membrane and probed.
Test [3] concerns the target T1, GTPase KRas. Briefly: Inhibition of KRAS in human AGS cells assessed as downregulation of ERK phosphorylation incubated for 3 hrs by immunoblotting analysis. The class given is cell-based. The following applies: tested as the 2H-labelled form.
For test [4], the target named is T1, GTPase KRas. Briefly: Inhibition of KRAS in human AGS cells assessed as downregulation of AKT phosphorylation incubated for 3 hrs by immunoblotting analysis. The conditions noted are these: tested as the 2H-labelled form. It counts as cell-based.
For test [5], the system named is ASPC1. Briefly: Antiproliferative activity against human ASPC1 cells harboring […] assessed as inhibition of cell growth incubated for 5 days by crystal violet staining analysis. The class given is functional, cell-based. The following applies: Homo sapiens, ASPC1, 120 h.
For test [6], the system named is AGS. The test can be described thus: Antiproliferative activity against human AGS cells harboring […] assessed as inhibition of cell growth incubated for 5 days by crystal violet staining analysis. The following applies: Homo sapiens, AGS, 120 h. The class given is functional, cell-based.
Test [7] deals with A549. The test can be described thus: Antiproliferative activity against human A549 cells harboring […] assessed as inhibition of cell growth incubated for 5 days by crystal violet staining analysis. It counts as functional, cell-based. The conditions noted are these: Homo sapiens, A549, 120 h.
Test [8] relates to NCI-H1299. The test can be described thus: Antiproliferative activity against human NCI-H1299 cells harboring KRAS wild type assessed as inhibition of cell growth incubated for 5 days by crystal violet staining analysis. The class given is functional, cell-based. The following applies: NCI-H1299, 120 h.

Bounds are passed on as bounds.

T1 sequence (P01116 whole entry, looked up): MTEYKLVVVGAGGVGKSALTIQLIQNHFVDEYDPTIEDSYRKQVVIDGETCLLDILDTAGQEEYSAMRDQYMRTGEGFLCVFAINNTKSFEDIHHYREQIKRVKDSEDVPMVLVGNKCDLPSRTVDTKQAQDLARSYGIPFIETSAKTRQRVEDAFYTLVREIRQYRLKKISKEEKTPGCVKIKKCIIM

For `C#Cc1c(F)ccc2cccc(-c3ncc4c(N5C[C@H]6CC[C@@H](C5)N6)nc(OCC56CCCN5CC(=C(F)F)C6)nc4c3F)c12` (stereo partly drawn), the inhibition result in test [1], in test [2], in test [3] and in test [4] was “Dose-Dependent Effect” throughout.

As for `C#Cc1c(F)ccc2cc(O)cc(-c3ncc4c(N5C[C@H]6CC[C@@H](C5)N6)nc(OCCn5cc(COCC67CCCN6CC(=C)C7)nn5)nc4c3F)c12` (stereo partly drawn), the IC50 in test [5] is > 50 nM; in test [6], > 50 nM; in test [7] it was > 5000 nM; in test [8], > 5000 nM.

In the case of `C#Cc1c(F)ccc2cc(O)cc(-c3ncc4c(N5C[C@H]6CC[C@@H](C5)N6)nc(OC[C@H]5CC6CCN5C[C@@H]6C=C)nc4c3F)c12`, the half-maximal inhibitory concentration (IC50) in test [5] was > 50 nM; in test [6], > 50 nM; in test [7], > 5000 nM; in test [8], > 5000 nM.

With `[2H]C([2H])(Oc1nc(N[C@H]2CCCC[C@@H]2N(C)C)c2cnc(-c3cc(O)cc4ccc(F)c(C#C)c34)c(F)c2n1)C12CCCN1CC(=C(F)F)C2` (stereo partly drawn), the 50% inhibitory concentration (IC50) in test [5] is > 50 nM; in test [6] it was > 50 nM; in test [7], > 5000 nM; in test [8], > 5000 nM.

On to `C#Cc1c(F)ccc2cc(O)cc(-c3ncc4c(N5C[C@H]6CC[C@@H](C5)N6)nc(OC[C@]56CCCN5[C@@H](Cn5cc(COCCOC)nn5)CC6)nc4c3F)c12` (racemic), for which the IC50 was > 50 nM in test [5], > 50 nM in test [6], > 5000 nM in test [7] and > 5000 nM in test [8].

On to `[2H]C([2H])(Oc1nc(N2C[C@H]3CC[C@@H](C2)N3)c2cnc(-c3cccc4cc(F)c(F)c(C#C)c34)c(F)c2n1)C12CCCN1CC(=C(F)F)C2` (stereo partly drawn), for which the IC50 in test [5] was > 50 nM; in test [6] it was > 50 nM; in test [7], > 5000 nM; in test [8], > 5000 nM.

Regarding `C#Cc1c(F)ccc2cc(O)cc(-c3ncc4c(N5C[C@H]6CC[C@@H](C5)N6)nc(NCCCn5cc(COCC67CCCN6CC(=C)C7)nn5)nc4c3F)c12` (stereo partly drawn), the half-maximal inhibitory concentration (IC50) in test [5] was > 50 nM; in test [6], > 50 nM; in test [7], > 5000 nM; in test [8], > 5000 nM.

The term IC50 denotes the concentration that inhibits the measured activity by half.

The values above are taken from ChEMBL document CHEMBL5390265, “Design, Synthesis, and Pharmacological Evaluation of Multisubstituted Pyrido[4,3-d]pyrimidine Analogues Bearing Deuterated Methylene Linkers as Potent KRASG12D Inhibitors” (J Med Chem, 2023).
